Source: patent publication US3954764A, “Dibenzo [b,f]thiepins bearing piperazinyl substitution” (priority 1973, dated 1976)
Entries after “also recorded” stand apart in the source; their conditions may differ. Where two headings read alike, the source gives them in different places.

Key:
[1] = system: homovanillinic acid (turnover of dopamine in the basal ganglions); assay: Determination of Homovanillinic Acid; type: in vivo, rat; conditions: rats; for Increase in HVA, percent: 2 hours before killing, untreated = 100 percent
Procedure: Two hours prior to being killed, rats are injected with the test substance.
Thereafter, the homovanillinic acid is extracted from the supernatant portion of a homogenized mixture of the brains of the treated rats into butyl acetate and later into an aqueous solution and is oxidized with potassium ferric cyanide to a fluorescent dimer. […] The homovanillinic acid titer in untreated rats is arbitrarily set at 100 percent.

[2] = Acute toxicity in the mouse; conditions: in vivo, po
rats [3] = assay: "Pole Climbing" Test; type: in vivo, rat; conditions: for ED50: Rattus norvegicus, po, read-out: ED50 (blocking of the conditioned reaction); for neuroleptic action in words / quality (selectivity) of the neuroleptic action in words: compared with chlorpromazine
Procedure: (§1) This test provides information about behavioral reactions of rats. Rats are trained to avoid, by climbing up a vertical pole in the test chamber, an electrical impulse (unconditioned impulse) released via the wire-latticed floor some seconds after an acoustic signal (conditioned impulse).
(§2) The blocking of the conditioned reaction is determined by the parameter ED50 (mg/kg p.o.); the blocking of the unconditioned reaction is determined by a parameter ED10 (mg/kg. p.o.).
(§3) The parameter ED50 (blocking of the conditioned reaction) gives a measure of the neuroleptic strength of action of the test substance. The quotient ED10 (blocking of the unconditioned reaction)/ED50 (blocking of the conditioned reaction) gives a measure of the quality of action of the test substance since, with increasing quotient, a greater selectivity of the neuroleptic action (slighter neurotoxic side-effect) is present.

"Pole Climbing" Test = type: in vivo, rat; conditions: rat, in vivo, po; rats, p.o.; higher quotient = greater selectivity of neuroleptic action; read-out: Quotient ED10 (blocking of the unconditioned reaction) / ED50 (blocking of the conditioned reaction)
Procedure: as §1, §2, §3

rats [4] = assay: Catalepsy test (i.p., rats; number of cataleptic animals recorded every 30 minutes over 6 hours); type: in vivo, rat
Procedure: (§4) The following compounds were tested:
(§5) The foregoing compounds were compared to chlorpromazine, a well-known central depressant, especially well known as a neuroleptic agent.
(§6) The test animals are considered to be cataleptic when the homolateral extremities remain in the crossed position for at least 10 seconds. The number of cataleptic animals is recorded every 30 minutes over a 6-hour period. The ED50 is the dose at which 50 percent of the animals are cataleptic.

[5] = as above; type: in vivo, rat; conditions: rat, in vivo, ip
Procedure: as §4, §5, §6

mice = assay: Rotating Rod Test; type: in vivo, mouse; conditions: for ED50: Mus musculus, po, read-out: ED50 (dose which reduces the holding on period by 50 percent); for Rotating Rod Test activity in words: compared with chlorpromazine
Procedure: In the Rotating Rod Test, the ability of mice to achieve a coordinated motor performance is investigated. After peroral administration of the test substance, the mice are placed upon a horizontal slowly rotating rod and the time they remain on the rod is recorded. The ED50 is that dose which reduces the holding on period of the mice by 50 percent as compared to the holding on period prior to the administration of the test substance.

[6] = rats, intraperitoneal, 6-hour period, read-out: ED50 (dose at which 50 percent of the animals are cataleptic)

Row | Structure (SMILES) | Increase in HVA, percent ([1]; 20 mg/kg p.o.) [%] | LD50 at 24 h [2] [mg/kg] | ED50 (rats [3]; rats, p.o.) [mg/kg] | selectivity ratio ("Pole Climbing" Test) | cataleptic activity in words (rats [4]; rat, in vivo) | TD50 at 6 h [5, 6] [mg/kg] | ED50 (mice) [mg/kg] | HVA test activity in words [1] | Increase in HVA, percent ([1]; 50 mg/kg p.o.) [%] | cataleptic activity in words (rats [4]; as compared to chlorpromazine) | ED50 (mice; mice, peroral) [mg/kg] | Rotating Rod Test activity in words (mice; mice, peroral, maleate) | neuroleptic action in words (rats [3]; rats) | quality (selectivity) of the neuroleptic action in words (rats [3]; rats) | TD50 at 6 h [5] [mg/kg] | Rotating Rod Test activity in words (mice; mice, peroral) | Increase in HVA, percent ([1]; 45 mg/kg p.o.) [%] | ED50 (rats [3]) [mg/kg]
1 | CN(C)CCCN1c2ccccc2Sc2ccc(Cl)cc21 [Chlorpromazine, reference compound] | 321 | 200 | 11.8 | 2.5 | does demonstrate cataleptic effect | 6 | 5 | – | – | – | – | – | – | – | – | – | – | –
2 | Cc1ccc2c(c1)CC(N1CCN(CCN3CCCC3=O)CC1)c1cc(Cl)ccc1S2.O=C(O)/C=C\C(=O)O (stereo not drawn) [Product A, 1-{2-[4-(8-chloro-10,11-dihydro-2-methyl-dibenzo[b,f]thiepin-10-yl)-1-piperazinyl]-ethyl}-2-pyrrolidinone maleate] | – | 3750 | – | – | – | > 100 | – | nearly as potent as that of chlorpromazine | 295 | no cataleptic effect | 7.3 | strong activity; also recorded: approximates that of chlorpromazine | – | – | – | – | – | –
3 | O=C(O)/C=C\C(=O)O.O=C1OCCN1CCN1CCN(C2Cc3cc(Cl)ccc3Sc3cc(F)ccc32)CC1 (stereo not drawn) [Product B, 3-{2-[4-(2-chloro-7-fluoro-10,11-dihydrodibenzo[b,f]thiepin-10-yl)-1-piperazinyl]-ethyl}-2-oxazolidinone maleate] | – | 900 | – | – | – | > 100 | – | nearly as potent as that of chlorpromazine | 270 | no cataleptic effect | – | – | – | – | – | – | – | –
4 | Cc1ccc2c(c1)CC(N1CCN(CCN3CCOC3=O)CC1)c1cc(F)ccc1S2 (stereo not drawn) [Product C, 3-{2-[4-(8-fluoro-10,11-dihydro-2-methyl-dibenzo[b,f]thiepin-10-yl)-1-piperazinyl]-ethyl}-2-oxazolidinone] | – | 1880 | 14 | 23 | – | – | – | – | 235 | very weak cataleptic activity | 2.1 | – | lies somewhat below that of chlorpromazine | substantially exceeds that of chlorpromazine | 75 | strong activity; also recorded: superior to that of chlorpromazine | – | –
5 | O=C(O)/C=C\C(=O)O.O=C1OCCN1CCN1CCN(C2Cc3cc(Cl)ccc3Sc3ccc(F)cc32)CC1 (stereo not drawn) [Product D, 3-{2-[4-(2-chloro-8-fluoro-10,11-dihydrodibenzo[b,f]thiepin-10-yl)-1-piperazinyl]-ethyl}-2-oxazolidinone maleate] | – | 450 | – | 7.6 | – | 45 | – | nearly as potent as that of chlorpromazine | – | considerably lower cataleptic activity | 1 | strong activity; also recorded: superior to that of chlorpromazine | lies somewhat below that of chlorpromazine | substantially exceeds that of chlorpromazine | – | – | 300 | 17
6 | CSc1ccc2c(c1)C(N1CCN(CCN3CCOC3=O)CC1)Cc1cc(C)ccc1S2.O=C(O)/C=C\C(=O)O (stereo not drawn) [Product E, 3-{2-[4-(10,11-dihydro-2-methyl-8-methylthiodibenzo[b,f]thiepin-10-yl)-1-piperazinyl]-ethyl}-2-oxazolidinone maleate] | – | 3750 | – | 12 | – | 45 | – | – | 255 | considerably lower cataleptic activity | – | – | lies somewhat below that of chlorpromazine | substantially exceeds that of chlorpromazine | – | – | – | 25
